21 molecules from US7202239B2, “Cyclohexylphenyl carboxamides tocolytic oxytocin receptor antagonists” (Wyeth, priority 2001, dated 2007) can be followed below.

Molecules are shown by their SMILES.

For series [1], the target named is human vasopressin V1a receptor subtype (Homo sapiens, UniProt P37288). The series is described as follows: Vasopressin binding in CHO cell membranes expressing human vasopressin V1a subtype receptors. As to conditions: [3H]Manning ligand; for inhibition at 0.1 µM / V1a % inhibition at 100 nM: 100 nM; for IC50: value in parentheses. An excerpt: Vasopressin Binding in Chinese Hamster Ovary Cell Membranes Expressing Human Vasopressin V1a Subtype Receptors
human vasopressin V1a receptor subtype, sequence (P37288 whole entry): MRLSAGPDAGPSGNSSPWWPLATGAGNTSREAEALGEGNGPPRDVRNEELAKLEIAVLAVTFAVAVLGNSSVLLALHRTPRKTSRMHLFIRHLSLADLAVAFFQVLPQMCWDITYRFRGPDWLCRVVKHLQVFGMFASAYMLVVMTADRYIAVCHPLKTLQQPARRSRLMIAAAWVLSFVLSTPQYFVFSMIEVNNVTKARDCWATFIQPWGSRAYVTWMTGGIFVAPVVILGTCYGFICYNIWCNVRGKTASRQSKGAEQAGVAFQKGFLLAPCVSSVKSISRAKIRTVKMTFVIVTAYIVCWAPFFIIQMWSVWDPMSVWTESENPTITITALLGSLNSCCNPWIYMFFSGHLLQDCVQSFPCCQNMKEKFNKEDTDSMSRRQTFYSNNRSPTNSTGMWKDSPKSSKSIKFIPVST
Chinese hamster ovary cells (CHO cells) stably transfected with the human vasopressin V1a subtype receptors were either obtained from Biosignal Inc., 1744 rue Williams, Montreal, Quebec, Canada or obtained from M. Thibonnier, Case Western Reserve University School of Medicine, Cleveland, Ohio. A. Passaging and Amplification of Cells: CHO cells transfected with the human vasopressin V1a subtype receptors obtained from M. Thibonnier (pZeoSV vector) are allowed to grow to confluency (approx. >90%) in T-150 flasks under sterile conditions, in a cell culture medium of F-12 Nutrient Mixture (HAM) with L-glutamine (Gibco Cat. # 11765-054) containing 15 mM HEPES (Gibco Cat. 15630-080), 1% antibiotic/antimycotic (add 5 mL 100×, Gibco Cat. 15240-062 per 500 mL F-12), 250 μg/mL Zeocin (add 1.25 mL of 100 mg/mL Invitrogen R-250-01 per 500 mL F-12) and 10% Fetal Bovine Serum (Qualified, heat inactivated, Gibco Cat. # 16140-063). The medium is removed by aspiration and the cells are washed with 10 mL of Hank's Balanced Salt solution (Gibco Cat. # 14175-095). The salt solution is removed by aspiration and the cells are trypsinized with 5 mL of trypsin-EDTA (0.05% trypsin, 0.53 mM EDTA-4Na, Gibco Cat. # 25300-070) for 1 min. The trypsin is removed by aspiration and the cells dislodged by tapping. Cell Culture medium (eg, 30 mL for 1:30 split) is immediately added and mixed well to inactivate trypsin. 1 mL of detached cells is added to new culture flasks containing fresh cell culture medium (eg, into 25 mL per T-150 flask), and mixed gently. The cells are incubated at 37° C. in 5% CO2. The medium is changed at 3 to 4 days interval (or as appropriate). The cells grow to confluency (approx. >75%–95%) within 7–8 days. All steps are done under sterile conditions. B. Membrane Preparation: The cells are washed twice gently with Hank's Balanced Salt solution (e.g,. use 10 mL per T-150 flask). The excess is removed and the cells are bathed for 15–30 min. in an enzyme-free Cell Dissociation Buffer (e.g. use 8 mL Hank's Based, Gibco Cat. # 13150-016 per T-150 flask) until the cells are loosened. The contents are transferred to centrifuge tubes (50 mL) kept in an ice bath. All subsequent steps are done at 4° C. The tubes are centrifuged at 300×g for 15 min (1380 rpm on SORVAL, Model RT6000D, using rotor for the 50 mL tubes). The supernatant is discarded and the cells suspended in homogeneizing buffer(10 mM Tris-HCl containing 0.25 M sucrose and 1 mM EDTA, pH 7.4) ensuring that the volume of the buffer is about ten times the volume of the cell pellet. The cells are pooled into a centrifuge tube (50 mL) and homogenized with Polytron at setting 6 for 10 sec. The homogenate is transferred into a Potter-Elvjehm homogenizer and homogenized with 3 strokes. The homogenate is centrifuged at 1500× g for 10 min at 4° C. (3100 rpm using SORVAL, model RT6000D, using the rotor for 50 mL tubes). The pellet is discarded. The supernatant is centrifuged at 100,000×g for 60 min. at 4° C. (Beckman L8-80M ultracentrifuge; spin at 37,500 rpm with rotor type 70 Ti for 50 mL tubes; 38,000 rpm with type 80Ti for 15 mL tubes; or 35,800 rpm with rotor type 45Ti). The supernantant is discarded and the pellet suspended in 3 to 4 mL of Tris buffer (50 mM TRIS-HCl, pH 7.4). The protein content is estimated by the Bradford or Lowry method. The volume of the membrane suspension is adjusted with the membrane buffer (50 mM Tris-HCl containing 0.1% BSA and 0.1 mM PMSF) to give 3.0 mg/mL (or as appropriate) of protein. The membranes are aliquoted and stored at −70° C. C. […]

In turn, `CN(C)/C=C/C(=O)c1ccc2n1Cc1ccccc1N(C(=O)c1ccc(C3CCCCC3)cc1)C2` [Example 20, (E)-1-[10-(4-Cyclohexyl-benzoyl)-10,11-dihydro-5H-pyrrolo[2,1-c][1,4]benzodiazepin-3-yl]-3-(dimethylamino)-2-propen-1-one] came in with a melting point of 237 to 240 °C. The inhibition at 0.1 µM in series [1] was 21%.
Take `CN1CCCN(C(=O)c2ccc3n2Cc2ccccc2N(C(=O)c2ccc(C4CCCCC4)cc2)C3)CC1` [Example 30, [10-(4-Cyclohexyl-benzoyl)-10,11-dihydro-5H-pyrrolo[2,1-c][1,4]benzodiazepin-3-yl](4-methyl-[1,4]-diazepan-1-yl)-methanone]: the melting point was in the range of 133 to 136 °C. The inhibition at 0.1 µM in series [1] came to 49%.
On to `O=C(c1ccc2n1Cc1ccccc1N(C(=O)c1ccc(C3CCCCC3)cc1)C2)N1CCC(N2CCCCC2)CC1` [Example 26, [1,4′]Bipiperidinyl-1′-yl-[10-(4-cyclohexyl-benzoyl)-10,11-dihydro-5H-pyrrolo[2,1-c][1,4]benzodiazepin-3-yl]-methanone], for which the IC50 in series [1] is 200 nM.
Consider `CN(C)[C@@H]1CCN(C(=O)c2ccc3n2Cc2ccccc2N(C(=O)c2ccc(C4CCCCC4)cc2)C3)C1` [Example 47, [10-(4-Cyclohexyl-benzoyl)-10,11-dihydro-5H-pyrrolo[2,1-C][1,4]benzodiazepin-3-yl][(3R)-3-(dimethylamino)pyrrolidinyl]methanone], for which the “V1a % inhibition at 100 nM” value in series [1] is reported as 28%.
Consider `CN1CCC(N(C)C(=O)c2ccc3n2Cc2ccccc2N(C(=O)c2ccc(C4CCCCC4)cc2)C3)CC1` [Example 39, 10-(4-Cyclohexyl-benzoyl)-N-methyl-N-(1-methyl-4-piperidinyl)-10,11-dihydro-5H-pyrrolo[2,1-c][1,4]benzodiazepine-3-carboxamide], for which the inhibition at 0.1 µM in series [1] came to 43%.
On to `O=C(c1ccc2n1Cc1ccccc1N(C(=O)c1ccc(C3CCCCC3)cc1)C2)N1CCN(c2ccncc2)CC1` [Example 54, [10-(4-Cyclohexyl-benzoyl)-10,11-dihydro-5H-pyrrolo[2,1-c][1,4]benzpdiazepin-3-yl][4-(4-pyridinyl)-1-piperazinyl]-methanone], for which the “V1a % inhibition at 100 nM” value in series [1] is on record as 0%.
With `CN(C)CCN(C)C(=O)c1ccc2n1Cc1ccccc1N(C(=O)c1ccc(C3CCCCC3)cc1)C2` [Example 34, 10-(4-Cyclohexyl-benzoyl)-N-[2-(dimethylamino)-ethyl]-N-methyl-10,11-dihydro-5H-pyrrolo[2,1-c][1,4]benzodiazepine-3-carboxamide], in series [1], the inhibition at 0.1 µM amounted to 3%.
On to `O=C(c1ccc2n1Cc1ccccc1N(C(=O)c1ccc(C3CCCCC3)cc1)C2)N1CCN(c2ncccn2)CC1` [Example 23], for which the IC50 in series [1] is 635 nM.
In the case of `CN1CCCC1CCNC(=O)c1ccc2n1Cc1ccccc1N(C(=O)c1ccc(C3CCCCC3)cc1)C2` (centres unmarked) [Example 38, 10-(4-Cyclohexyl-benzoyl)-N-[2-(1-methyl-2-pyrrolidinyl)ethyl]-10,11-dihydro-5H-pyrrolo[2,1-c][1,4]benzodiazepine-3-carboxamide], in series [1], the inhibition at 0.1 µM worked out at 31%.
Consider `CN(C)CCCNC(=O)c1ccc2n1Cc1ccccc1N(C(=O)c1ccc(C3CCCCC3)cc1)C2` [Example 33, 10-(4-Cyclohexyl-benzoyl)-N-[3-(dimethylamino)propyl]-10,11-dihydro-5H-pyrrolo[2,1-c][1,4]benzodiazepine-3-carboxamide], for which the inhibition at 0.1 µM in series [1] stood at 27%.
As to `CN1CCN(C(=O)C(=O)c2ccc3n2Cc2ccccc2N(C(=O)c2ccc(C4CCCCC4)cc2)C3)CC1` [Example 32, 1-[10-(4-Cyclohexyl-benzoyl)-10,11-dihydro-5H-pyrrolo[2,1-c][1,4]benzodiazepin-3-yl]-2-(4-methyl-1-piperazin-1-yl)-1,2-ethane-1,2-dione], in series [1], the “V1a % inhibition at 100 nM” value is recorded as 56%.
Take `CN(C)CCCN1CCN(C(=O)c2ccc3n2Cc2ccccc2N(C(=O)c2ccc(C4CCCCC4)cc2)C3)CC1` [Example 45, [10-(4-Cyclohexyl-benzoyl)-10,11-dihydro-5H-pyrrolo[2,1-c][1,4]benzodiazepin-3-yl]{4-[3-(dimethylamino)propyl]-1-piperazinyl}methanone]: the inhibition at 0.1 µM in series [1] is 31%.
Still for that read-out and setting: next, `CN(C)CCCN(C)C(=O)c1ccc2n1Cc1ccccc1N(C(=O)c1ccc(C3CCCCC3)cc1)C2` [Example 35, 10-(4-Cyclohexyl-benzoyl)-N-[3-(dimethylamino)propyl]N-methyl-10,11-dihydro-5H-pyrrolo[2,1-c][1,4]benzodiazepine-3-carboxamide]: 12%.
Take `Cc1cccc(C(=O)NNC(=O)c2ccc3n2Cc2ccccc2N(C(=O)c2ccc(C4CCCCC4)cc2)C3)c1` [Example 14, 10-(4-Cyclohexyl-benzoyl)-N′-(3-methyl-benzoyl)-10,11-dihydro-5H-pyrrolo[2,1-c][1,4]benzodiazepine-3-carbonyl-hydrazide]: the “V1a % inhibition at 100 nM” value in series [1] came to 23%.
`CN(CCc1ccccn1)C(=O)c1ccc2n1Cc1ccccc1N(C(=O)c1ccc(C3CCCCC3)cc1)C2` [Example 52, 10-(4-Cyclohexyl-benzoyl)-N-methyl-N-[2-(2-pyridinyl)-ethyl]-10,11-dihydro-5H-pyrrolo[2,1-c][1,4]benzodiazepine-3-carboxamide]: the inhibition at 0.1 µM in series [1] is 19%.
With `O=C(c1ccc2n1Cc1ccccc1N(C(=O)c1ccc(C3CCCCC3)cc1)C2)N1CCC(N2CCCC2)CC1` [Example 25, [10-(4-Cyclohexyl-benzoyl)-10,11-dihydro-5H-pyrrolo[2,1-c][1,4]benzodiazepin-3-yl][4-(1-pyrrolidinyl)-1-piperidinyl]methanone], in series [1], the concentration for half-maximal inhibition (IC50) came out at 90.4 nM.
`O=C(c1ccc(C2CCCCC2)cc1)N1Cc2ccc(C(=O)N3CCC[C@H]3CN3CCCC3)n2Cc2ccccc21` [Example 46, [10-(4-Cyclohexyl-benzoyl)-10,11-dihydro-5H-pyrrolo[2,1-c][1.4]benzodiazepin-3-yl][(2S)-2-(1-pyrrolidinylmethyl)pyrrolidinyl]methanone]: the “V1a % inhibition at 100 nM” value in series [1] was 21%.
On to `NNC(=O)c1ccc2n1Cc1ccccc1N(C(=O)c1ccc(C3CCCCC3)cc1)C2` [Example 8, 10-(4-Cyclohexy-benzoyl)-10,11-dihydro-5H-pyrrolo[2,1-c][1,4]benzodiazepine-3-carboxylic acid hydrazide], for which the IC50 in series [1] was found to be 543 nM.
For the molecule `CC(C)N1CCN(C(=O)c2ccc3n2Cc2ccccc2N(C(=O)c2ccc(C4CCCCC4)cc2)C3)CC1` [Example 44, [10-(4-Cyclohexyl-benzoyl)-10,11-dihydro-5H-pyrrolo[2,1-c][1,4]benzodiazepin-3-yl](4-isopropyl-1-piperazinyl)methanone], the inhibition at 0.1 µM in series [1] was determined as 1%.
Consider `O=C(c1ccc2n1Cc1ccccc1N(C(=O)c1ccc(C3CCCCC3)cc1)C2)N1CCN(CCN2CCOCC2)CC1` [Example 42, [10(4-Cyclohexyl-benzoyl)-10,11-dihydro-5H-pyrrolo[2,1-c][1,4]benzodiazepin-3-yl]{4-[2-(4-morpholinyl)ethyl]-1-piperazinyl}methanone], for which the inhibition at 0.1 µM in series [1] came to 28%.
Consider `O=C(NNC(=O)c1ccc2n1Cc1ccccc1N(C(=O)c1ccc(C3CCCCC3)cc1)C2)Nc1ccccc1` [Example 15, 2-{[10-(4-Cyclohexyl-benzoyl)-10,11-dihydro-5H-pyrrolo[2,1-c][1,4]benzodiazepin-3-yl]carbonyl}-N-phenyl-1-hydrazinecarboxamide], for which the inhibition at 0.1 µM in series [1] was -4%.

The melting point is the temperature, or range, at which the solid turns liquid. The term inhibition denotes the change of the read-out against control, counted positive when it falls. One may read the IC50 as the concentration that inhibits the measured activity by half.
